Measurements published in patent publication US20110039921A1 (priority 2007, published 2011).
pIC50: −log10 of the molar value. Like-named read-outs stand apart in the source and are kept apart here.

What was measured:
[1] = test system: A549: the human lung adenocarcinoma cell strain; assay: cells; format: cell-based
Procedure: (§1) Experiment 1. Cytotoxicity Screening Assay at Cell Level of Compounds of this Invention
(§2) Tumor cells at log phase were incubated on 96-well plates at a density of 1˜1.2×10^4 cells/ml, 100 μl/well. 24 h later, treatment cells were exposed to the tested agents at different concentrations. Each tested agents had 4˜5 doses, and each dose had at least 3 parallel wells. Control cells were exposed to solvents in the same volume with treat agents. Cells were cultured at 37° C. in a cell incubator with 5% CO2 and 95% air atmosphere. After 4 days of culture, the incubation medium was removed, then 200 μl 0.2% MTT (prepared by RPMI 1640) was added to each well and the plates were incubated at 37° C. for 4 hours. The supernatant was discarded and dissolved the resulting formazen product with 200 μl DMSO in each well. The absorbance at a reference wavelength of 450 nm and a test wavelength of 570 nm was read on a microplate reader after tenderly shaking. Calculated drug inhibitory rate using the following equation and IC50, taking solvent exposure tumor cells as control cells.

[2] = test system: KB: the human oral epithelium cancer cell strain; assay: cells; format: cell-based
Procedure: as §1, §2

[3] = test system: A549/Taxol: the taxol-resistant substrain of A549; assay: cells; format: cell-based, human
Procedure: as §1, §2

[4] = test system: KB/V: the vincristine-resistant substrain of KB; assay: cells; format: cell-based, human; conditions: Table 1; MTT, 4 days of culture; read-out: IC50(M) KB/V
Procedure: as §1, §2

HCT-8 = assay: MTT cytotoxicity assay, HCT-8 cells; format: cell-based; conditions: Table 2, read-out: IC50 (mol/L) HCT-8
Procedure: as §1, §2

Bel-7402 = assay: MTT cytotoxicity assay, Bel-7402 cells; format: cell-based; conditions: Table 2, read-out: IC50 (mol/L) Bel-7402
Procedure: as §1, §2

A2780 = assay: MTT cytotoxicity assay, A2780 cells; format: cell-based, human; conditions: Table 2, read-out: IC50 (mol/L) A2780
Procedure: as §1, §2

[5] = test system: human mammary adenocarcinoma cell strain MCF-7; assay: MTT cytotoxicity assay, MCF-7 cells; format: cell-based; conditions: Table 2, read-out: IC50 (mol/L) MCF-7
Procedure: as §1, §2

[6] = test system: MCF-7/D: adriamycin-resistant subline of the human mammary adenocarcinoma cell strain MCF-7; assay: MTT cytotoxicity assay, MCF-7/D cells; format: cell-based; conditions: Table 2, read-out: IC50 (mol/L) MCF-7/D
Procedure: as §1, §2

BGC-823 = assay: MTT cytotoxicity assay, BGC-823 cells; format: cell-based, human; conditions: Table 2, read-out: IC50 (mol/L) BGC-823
Procedure: as §1, §2

BGC-803 = assay: MTT cytotoxicity assay, BGC-803 cells; format: cell-based; conditions: Table 2, read-out: IC50 (mol/L) BGC-803
Procedure: as §1, §2

[7] = test system: human ovarian cancer A2780-nude mice-xenograft tumor; assay: Growth inhibition on A2780-nude mice-xenograft tumor; conditions: for Tv x ± SD dn: dn: 30 days after the first administration
From the text: (§3) Genera: BALB/c (nu-nu) nude mice
(§4) After one-week accommodation, animals were given subcutaneous implantation of the human lung adenocarcinoma A549 or the human ovarian cancer A2780 or the human gastric carcinoma BGC-823 cells. Animals were grouped randomly (d0) when the tumors reached 100-300 mm^3. […] Animal weights and tumor measurements were taken every […] and recorded. At the end of the study (d30 or d35), nude mice were euthanized and weighed. After the animals were sacrificed, tumor tissue was cut and weighed. Tumor volume was determined using the following equation: […]

[8] = test system: human gastric carcinoma BGC-823 nude mice-xenograft tumor; assay: Growth inhibition on BGC-823-nude mice-xenograft tumor; conditions: for Tv x ± SD dn: dn 30 days after the first administration
From the text: as §3, §4

[9] = test system: human lung adenocarcinoma A549-nude mice-xenograft tumor; assay: Growth inhibition on A549-nude mice-xenograft tumor
From the text: as §3, §4

Lewis lung cancer = assay: Inhibitory activity on mice Lewis lung cancer

CC=C(C)C(=O)NC(c1ccccc1)C(O)C(=O)OC1CC2(O)C(OC(=O)c3cccc(N=[N+]=[N-])c3)C3C4(OC(C)=O)COC4CC(OC(=O)CC)C3(C)C(=O)C(O)C(=C1C)C2(C)C (stereo not drawn) [Example 8, 2-(3-azidobenzoyl)-7-propionyl-10-deacetyl-cephalomannine]
IC50 ([1]; Table 1, MTT, 4 days of culture, read-out: IC50(M) A549): 9.36e-09 M
pIC50 ([1]; Table 2, MTT assay, read-out: IC50 (mol/L) A549): 9.03
IC50 ([2]; Table 1, MTT, 4 days of culture, read-out: IC50(M) KB): 2.39e-09 M
pIC50 ([2]; Table 2, MTT assay, read-out: IC50 (mol/L) KB): 9.31
pIC50 ([3]; Table 2, MTT assay, read-out: IC50 (mol/L) A549/T): 8.85
IC50 ([3]; read-out: IC50(M) A549/Taxol, Table 1, MTT, 4 days of culture): > 1000 nM
IC50 [4]: 2.73e-07 M
pIC50 (HCT-8): 9.49
pIC50 (Bel-7402): 8.06
pIC50 (A2780): 8.44
pIC50 [5]: 9.17
pIC50 [6]: 6.57
pIC50 (BGC-823): 8.89
pIC50 (BGC-803): 8.62
RTV ([7]; 7.5 × 4 mg/kg i.p.): 7.8
T/C (%) ([7]; 7.5 × 4 mg/kg i.p.): 80.3%
Tv x ± SD d0 ([7]; 7.5 × 4 mg/kg i.p., d0): 127.6 ± 65.9
Tv x ± SD dn ([7]; 7.5 × 4 mg/kg i.p.): 989.3 ± 658.9
Body weight (g) end ([7]; 7.5 × 4 mg/kg i.p.): 25.5 g
Body weight (g) initial ([7]; 7.5 × 4 mg/kg i.p.): 22.4 g
RTV ([7]; 15 × 4 mg/kg i.p.): 6.6
T/C (%) ([7]; 15 × 4 mg/kg i.p.): 68.1%
Tv x ± SD d0 ([7]; 15 × 4 mg/kg i.p., d0): 130.2 ± 36.0
Tv x ± SD dn ([7]; 15 × 4 mg/kg i.p.): 855.6 ± 500.3
Body weight (g) end ([7]; 15 × 4 mg/kg i.p.): 25.2 g
Body weight (g) initial ([7]; 15 × 4 mg/kg i.p.): 22.0 g
RTV ([7]; 30 × 4 mg/kg i.p.): 3.4
T/C (%) ([7]; 30 × 4 mg/kg i.p.): 34.9%
Tv x ± SD d0 ([7]; 30 × 4 mg/kg i.p., d0 (first administration)): 157.1 ± 56.2
Tv x ± SD dn ([7]; 30 × 4 mg/kg i.p.): 529.6 ± 454.8
Body weight (g) end ([7]; 30 × 4 mg/kg i.p.): 22.3 g
Body weight (g) initial ([7]; 30 × 4 mg/kg i.p.): 22.0 g
inhibition of tumor growth, conclusion in words ([7]; A2780 nude mice-xenograft tumor, comparison with taxol): stronger effect
RTV ([8]; 7.5 × 4 mg/kg i.p.): 17.45
T/C (%) ([8]; 7.5 × 4 mg/kg i.p.): 63.84%
Tv x ± SD d0 ([8]; 7.5 × 4 mg/kg i.p.): 101.1 ± 17.4
Tv x ± SD dn ([8]; 7.5 × 4 mg/kg i.p.): 2057.5 ± 1756.4
Body weight (g) end ([8]; 7.5 × 4 mg/kg i.p.): 26.1 g
Body weight (g) initial ([8]; 7.5 × 4 mg/kg i.p.): 24.7 g
RTV ([8]; 15 × 4 mg/kg i.p.): 9.27
T/C (%) ([8]; 15 × 4 mg/kg i.p.): 33.90%
Tv x ± SD d0 ([8]; 15 × 4 mg/kg i.p.): 104.4 ± 16
Tv x ± SD dn ([8]; 15 × 4 mg/kg i.p.): 1156.6 ± 403.9
Body weight (g) end ([8]; 15 × 4 mg/kg i.p.): 23.8 g
Body weight (g) initial ([8]; 15 × 4 mg/kg i.p.): 25.2 g
RTV ([8]; 30 × 4 mg/kg i.p.): 0.47
T/C (%) ([8]; 30 × 4 mg/kg i.p.): 4.57%
Tv x ± SD d0 ([8]; 30 × 4 mg/kg i.p.): 99.7 ± 34.3
Tv x ± SD dn ([8]; 30 × 4 mg/kg i.p.): 177.1 ± 199.0
Body weight (g) end ([8]; 30 × 4 mg/kg i.p.): 23.9 g
Body weight (g) initial ([8]; 30 × 4 mg/kg i.p.): 25.0 g
inhibition of tumor growth, conclusion in words ([8]; BGC-823 nude mice-xenograft tumor, comparison with taxol): equal to taxol
RTV ([9]; 7.5 × 3 mg/kg): 7.2
T/C (%) ([9]; 7.5 × 3 mg/kg): 60.7%
Body weight (g) end ([9]; 7.5 × 3 mg/kg): 21.8 g
Tv x ± SD end ([9]; 7.5 × 3 mg/kg): 3090 ± 900
Body weight (g) initial ([9]; 7.5 × 3 mg/kg): 21.6 g
Tv x ± SD initial ([9]; 7.5 × 3 mg/kg): 431 ± 94
RTV ([9]; 15 × 3 mg/kg): 6.7
T/C (%) ([9]; 15 × 3 mg/kg): 56.7%
Body weight (g) end ([9]; 15 × 3 mg/kg): 25.1 g
Tv x ± SD end ([9]; 15 × 3 mg/kg): 2897 ± 950
Body weight (g) initial ([9]; 15 × 3 mg/kg): 22.4 g
Tv x ± SD initial ([9]; 15 × 3 mg/kg): 432 ± 115
RTV ([9]; 30 × 3 mg/kg): 4.0
T/C (%) ([9]; 30 × 3 mg/kg): 33.56%
Body weight (g) end ([9]; 30 × 3 mg/kg): 23.2 g
Tv x ± SD end ([9]; 30 × 3 mg/kg): 1646 ± 450
Body weight (g) initial ([9]; 30 × 3 mg/kg): 21.8 g
Tv x ± SD initial ([9]; 30 × 3 mg/kg): 415 ± 85
inhibition of tumor growth, conclusion in words ([9]; A549 nude mice-xenograft tumor, comparison with taxol): stronger effect
Inhibition (%) (Lewis lung cancer; 2.5 × 8 mg/kg): 27.77%
Tumor weight (g) Average (Lewis lung cancer; 2.5 × 8 mg/kg): 2.07 g
Body weight (g) end (Lewis lung cancer; 2.5 × 8 mg/kg): 22.0 g
Body weight (g) initial (Lewis lung cancer; 2.5 × 8 mg/kg): 20.0 g
Inhibition (%) (Lewis lung cancer; 5 × 8 mg/kg): 32.46%
Tumor weight (g) Average (Lewis lung cancer; 5 × 8 mg/kg): 1.96 g
Body weight (g) end (Lewis lung cancer; 5 × 8 mg/kg): 20.4 g
Body weight (g) initial (Lewis lung cancer; 5 × 8 mg/kg): 20.0 g
Inhibition (%) (Lewis lung cancer; 10 × 8 mg/kg): 76.08%
Tumor weight (g) Average (Lewis lung cancer; 10 × 8 mg/kg): 0.69 g
Body weight (g) end (Lewis lung cancer; 10 × 8 mg/kg): 16.8 g
Body weight (g) initial (Lewis lung cancer; 10 × 8 mg/kg): 19.5 g
inhibition of tumor growth, conclusion in words (Lewis lung cancer; Lewis lung cancer, comparison with taxol): stronger effect
